Legend:
[1] = target: T1, human 5-HT1A receptor (Homo sapiens, UniProt P08908); assay: Assay for affinity for serotonin-1A receptor (3H 8-OH-DPAT competitive binding); conditions: 10 μM compound; 1.5 nM 3[H] 8-OH-DPAT; CHO cells transfected with human 5-HT1A receptor; mean of two experiments
T1 construct: expressed in transfected cells; host or cells: CHO (Chinese hamster ovary) cells
T1 sequence (P08908 1-422): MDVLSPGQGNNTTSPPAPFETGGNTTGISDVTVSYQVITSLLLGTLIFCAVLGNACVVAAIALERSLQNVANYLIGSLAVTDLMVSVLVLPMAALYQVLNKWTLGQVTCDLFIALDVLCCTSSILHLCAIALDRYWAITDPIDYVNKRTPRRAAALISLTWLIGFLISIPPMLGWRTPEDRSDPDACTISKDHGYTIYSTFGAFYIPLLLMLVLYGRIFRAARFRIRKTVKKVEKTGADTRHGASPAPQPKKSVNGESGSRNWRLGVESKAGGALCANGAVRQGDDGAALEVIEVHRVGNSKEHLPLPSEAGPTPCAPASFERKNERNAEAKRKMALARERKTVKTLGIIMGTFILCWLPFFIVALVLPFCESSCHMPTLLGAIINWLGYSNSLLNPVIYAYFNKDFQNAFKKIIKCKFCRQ
Experimental: Compounds of the present invention were examined for affinity for the serotonin-1A receptor which can increase gastric accommodation in response to an agonist.
In tris-HCl buffer (50 mM Tris-HCl, pH 7.4, 120 mM NaCl, 5 mM KCl, 2 mM CaCl2, 1 mM MgCl2), 150 μg of Chinese hamster ovary (CHO) cells transfected with a human […] 5-HT1A receptor were incubated at 37° C. for 1.5 hrs with 1.5 nM of ^3[H] 8-OH-DPAT and 10 μM of the compound of interest of Example. After completion of the incubation, the incubation mixture was filtered through Whatman GF/B filter (unifilter-96, Lot: 6005177, PerkinElmer) to separate ligand-bound receptors. These bound receptors were washed three times with 5 mL of a Tris-HCl buffer. Then, 10 mL of a scintillation cocktail (Lot: 03999, Fluka) was added, and reacted for 16 hrs or longer with to measure radiation activity using a beta-counter (Packcard) in order to calculate the quantity of ^3[H] 8-OH-DPAT bound to the receptor.
Meanwhile, 10 μM of metergoline was also incubated in the presence of 1.5 nM of ^3[H] 8-OH-DPAT to determine a nonspecific binding value. The experiment was independently carried out twice, and receptor affinity was calculated using the following Equation 2. […]

[2] = target: T2, human dopamine D2 receptor (Homo sapiens, UniProt P14416); assay: Assay for affinity for dopamine receptor (3H-spiperone competitive binding); conditions: 10 μM compound; 0.16 nM tritium spiperone; CHO cells transfected with human dopamine D2; mean of two experiments
T2 construct: expressed in transfected cells; host or cells: CHO (Chinese hamster ovary) cells
T2 sequence (P14416 whole entry): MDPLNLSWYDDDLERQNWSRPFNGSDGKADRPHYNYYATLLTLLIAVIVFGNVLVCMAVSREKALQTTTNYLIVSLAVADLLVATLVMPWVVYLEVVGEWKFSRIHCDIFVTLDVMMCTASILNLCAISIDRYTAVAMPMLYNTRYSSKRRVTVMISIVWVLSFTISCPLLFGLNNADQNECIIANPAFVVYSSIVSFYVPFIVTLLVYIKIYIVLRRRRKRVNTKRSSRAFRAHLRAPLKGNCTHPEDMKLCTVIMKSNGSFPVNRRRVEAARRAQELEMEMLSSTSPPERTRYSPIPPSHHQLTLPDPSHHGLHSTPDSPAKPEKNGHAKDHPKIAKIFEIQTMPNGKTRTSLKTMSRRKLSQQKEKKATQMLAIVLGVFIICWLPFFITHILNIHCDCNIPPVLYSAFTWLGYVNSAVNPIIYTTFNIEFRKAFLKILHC
Experimental: Affinity of the compounds of the present invention for the dopamine-D2 receptor, which is found in the wall of the gastric tract of mammals and inhibits gastric motility, was determined by measuring competitive inhibition against the binding to the receptor of a radio-labeled ligand which is known for its affinity for the receptor. In this regard, the experiment was performed according to the method described in [Heys G et al. Mol. Endocrinol. 6:920, 1992] and [Grandy D K et al. Proc Natl Acad Sci USA. 86:9762, 1989].
In tris-HCl buffer ([…], pH 7.4, 120 mM NaCl, 5 mM KCl, 2 mM CaCl2, 1 mM MgCl2) 150 μg of Chinese hamster ovary (CHO) cells transfected with a human dopamine D2, gene were incubated at 25° C. for 120 min with 0.16 nM of tritium Spiperone (^3[H] Spiperon [NEN, 250 μCi]) and 10 μM of the compound of interest. After completion of the incubation, the incubation mixture was filtered through Whatman GF/B filter (unifilter-96 Lot: 6005177, PerkinElmer) to separate ligand-bound receptors. […] Then, 10 mL of a scintillation cocktail (Lot: 03999, Fluka) was added and reacted for 16 hrs or longer to measure radiation activity using a beta-counter (Packcard) in order to calculate the quantity of tritium spiperone bound to the receptor. […] The experiment was independently carried out twice, and receptor affinity was calculated using the following Equation 1. […]

[3] = system: normal rat; assay: Gastric emptying effect on normal rat; assay type: in vivo, Sprague-Dawley rats
Experimental: Gastric emptying activity of the compounds of the present invention was examined in the following experiment.
Sprague-Dawley rats with an age of 6 weeks were divided into groups according to weight, and acclimated for one week at a temperature of 22˜24° C. and a humidity of 60-80% while a standard diet and water were provided. Thereafter, they were starved for 24 hrs before an experiment while water was provided. From 3 hrs before the experiment, no more water was provided. A 3% hydroxy propyl methyl cellulose solution containing the compound of Example in an amount of 10 μg/kg was orally administered at a dose of 1 mL to each rat.
After 45 min, a semi-solid test meal (0.05% phenol red solution containing 1.5% MC), prepared by mashing feeds in water, was orally administered in an amount of 2 mL to each rat. After 35 min, the SD rats were killed, and the stomach was excised, and weighed carefully lest the gut content was leaked. Subsequently, the stomach was washed with distilled water to remove the gut content, dried, and weighed again, in order to calculate the weight of the semi-solid test meal left in the gut. In Table 4, the control was orally administered with 1 mL of 3% […].
Gastric Emptying(%)=[1−(weight of semi-solid test meal left in gut/weight of semi-solid test meal at 0-time)]×100 [Equation 4] […]

[4] = target: T3, serotonin-1B receptor (Rattus norvegicus, UniProt P28564); assay: Assay for affinity for serotonin-1B receptor (125I cyanopindolol binding, rat cerebral cortex membranes); conditions: 10 μM compound, mean of two experiments
T3 construct: cell membranes of the cerebral cortex excised from male Winstar rats; from tissue; host or cells: rat cerebral cortex membranes (male Wistar rats)
T3 sequence (P28564 whole entry): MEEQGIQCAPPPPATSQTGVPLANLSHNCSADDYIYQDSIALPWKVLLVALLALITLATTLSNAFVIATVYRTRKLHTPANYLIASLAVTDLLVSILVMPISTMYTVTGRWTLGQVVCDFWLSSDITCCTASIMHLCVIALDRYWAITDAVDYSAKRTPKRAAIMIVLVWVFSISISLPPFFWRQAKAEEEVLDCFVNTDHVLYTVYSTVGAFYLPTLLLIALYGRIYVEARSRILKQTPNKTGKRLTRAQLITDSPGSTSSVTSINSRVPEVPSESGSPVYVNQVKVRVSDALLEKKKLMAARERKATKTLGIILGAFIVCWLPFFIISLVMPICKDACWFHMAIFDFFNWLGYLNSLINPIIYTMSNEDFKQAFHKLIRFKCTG
Experimental: Compounds of the present invention were examined for affinity for the serotonin-1B receptor which can exert a relaxation effect on the stomach and relieve impaired gastric accommodation of functional dyspepsia patients in response to an agonist.
In a Tris-HCl buffer (50 mM Tris-HCl, pH 7.4, 120 mM NaCl, 5 mM KCl, 2 mM CaCl2, 1 mM MgCl2), 4 mg of cell membranes of the cerebral cortex excised from male Winstar rats, each weighing 175±25 g, was incubated at 37° C. for 1.5 hrs with […] of ^125[I] cyanopindolol (PerkinElmer, 100 μCi) and 10 μM of the compound of interest of the present invention per well. After completion of the incubation, the incubation mixture was filtered through Whatman GF/B filter (unifilter-96, Lot: 6005177, PerkinElmer) to separate ligand-bound receptors. These bound receptors were washed three times with 5 mL of a Tris-HCl buffer. Then, 10 mL of a scintillation cocktail (Lot: 03999, Fluka) was added, and reacted for 16 hrs or to measure a radiation activity using a beta-counter (Packcard) in order to calculate the quantity of ^125[I] cyanopindolol bound to the receptor.
Meanwhile, 10 μM of serotonin (H9523, Sigma) was incubated in the presence of […] of ^125[I] cyanopindolol to determine a nonspecific binding value. The experiment was independently carried out twice, and receptor affinity was calculated using the following Equation 3. […]

SMILES: CCOC(=O)CCC(=O)N1CCc2cc(OC)c(OC)c3c2[C@@H]1Cc1cc(OC)c(OC)cc1-3 [Example 1, (S)-4-oxo-4-(1,2,9,10-tetramethoxy-4,5,6a,7-tetrahydro-dibenzo[de,g]quinoline-6-yl)-butyric acid ethyl ester]
- Affinity (%) [1]: 41%
- Affinity (%) [2]: 46%
- Gastric Emptying (%) ([3]; dose 10 μg/kg oral, 45 min before semi-solid test meal, stomach excised 35 min after meal, control 24.3): 47.8%
- increase of gastric emptying compared to the control ([3]; normal rats, oral dose 10 μg/kg): roughly two-fold
- Affinity (%) [4]: 92%
